From patent US11365175B2, “Aromatic amides having a fungicidal activity, their agronomic compositions and relative preparation method” (ISAGRO S.p.A., priority 2017, dated 2022)

Assays:
Type in all cases: in vivo
Plasmopara viticola = experiment: Preventive activity (7 days) against Plasmopara viticola on vines; conditions: vine Merlot, inoculation 7 days after treatment, reduction of diseased leaf area vs non-treated
Procedure: Determination of the Preventive Activity (7 Days) of the Compounds Having Formula (I) Against Plasmopara viticola on Vines
Leaves of vine plants of the Merlot variety, grown in pots, in a conditioned environment, (20±1° C., 70% of R.H.) were treated by spraying both sides with the compound under examination.
7 days after the treatment, the plants were inoculated with an aqueous suspension of spores of Plasmopara viticola (200,000 spores/cc) by spraying both sides of the leaves with a compressed air gun.
After remaining 24 hours in a humidity-saturated environment, at 21° C. the plants were transferred for an incubation period (7 days) in a conditioned environment at 70% of R H. and at 24° C.
At the end of this period, the external symptoms of the pathogen appeared and it was therefore possible to proceed with the evaluation of the intensity of the infection.
The fungicidal activity was expressed as the reduction percentage, with respect to non-treated seedlings, in the area of the leaf affected by the disease (100=full effectiveness; 0=zero effectiveness).

Puccinia recondita = experiment: Preventive fungicidal activity (5 days) against Puccinia recondita on wheat; conditions: for P5 activity NT (parts developed during the test) / P5 activity T (parts treated directly with the products): wheat Salgemma, inoculation 5 days after spraying, reduction of diseased leaf area vs non-treated
Procedure: Determination of the Preventive Fungicidal Activity (5 Days) Against Puccinia recondita on Wheat
Leaves of wheat plants of the Salgemma variety, grown in pots in a conditioned environment at 20° C. and 70% of Relative Humidity (RH) were treated by spraying both sides of the leaves with the compound under examination (see Table 4 hereunder) dispersed in a hydroacetone solution at 20% by volume of acetone.
After remaining 5 days in a conditioned environment, the plants were sprayed on both sides of the leaves with an aqueous suspension of conidia of Puccinia recondita (2 mg of inoculum per 1 ml of solution for infection).
After spraying, the plants were kept in a humidity-saturated environment at a temperature ranging from 18 to 24° C. for the incubation period of the fungus (1 day).
At the end of this period, the plants were put in a greenhouse with a relative humidity (RH) of 70% and at a temperature of 18-24° C. for 14 days.
At the end of this period, the external symptoms of the pathogen appeared and it was therefore possible to proceed with the visual evaluation of the intensity of the infection, both on the parts treated directly with the products (T) and on the parts developed during the implementation of the test (NT).
The fungicidal activity is expressed as a percentage of the reduction, with respect to non-treated seedlings (comparison), in the area of the leaf affected by the disease (100=full effectiveness; 0=zero effectiveness).

Helmintosporium teres = experiment: Fungicidal activity against Helmintosporium teres on barley; conditions: barley cv. Gemini, scale 0 (plant completely infected) to 100 (healthy plant)
Procedure: Determination of the Fungicidal Activity of the Compounds Having Formula (I) Against Helmintosporium Teres on Barley
Leaves of barley plants (cultivar Gemini), grown in pots in a conditioned environment (20±1° C., 70% of R.H.), were treated by spraying both sides of the leaves with the compounds under examination, dispersed in a […] solution at 20% by volume of acetone.
After remaining 5 days in a conditioned environment, the plants were sprayed on both sides of the leaves with an aqueous suspension of conidia of Helmintosporium teres (50,000 conidia per cm^3 (adding Tween 20-1 drop/100 ml).
The plants were then kept in a controlled environment during the incubation period of the fungus (1 day wet room for infection, 3 days in a cell with R.H. 70% and […] for the incubation period, 3 days for wet room evasion, 12 days biological cycle).
At the end of this period (12 days), the fungicidal activity was evaluated according to an evaluation percentage scale from 0 (plant completely infected) to 100 (healthy plant).

Compound | P7 activity (Plasmopara viticola; 30 ppm) | P7 activity (Plasmopara viticola; 125 ppm) | P5 activity NT (parts developed during the test) (Puccinia recondita; 125 ppm) | P5 activity T (parts treated directly with the products) (Puccinia recondita; 125 ppm) | P5 activity NT (parts developed during the test) (Puccinia recondita; 250 ppm) | P5 activity T (parts treated directly with the products) (Puccinia recondita; 250 ppm) | P7 activity (Helmintosporium teres; 125 ppm) | P7 activity (Helmintosporium teres; 250 ppm) | fungicidal activity (full activity) (Puccinia recondita; dosage of 250 ppm, T/NT not specified)
CC(C)C(=O)OCOc1c(C(=O)NC2CC(C)(C)CC(C)(C)C2)cccc1N(C=O)COC(=O)C(C)C [Compound 4, 3-(N′-formyl-N′-[(2-methylpropanoyl-oxy)methyl]amino)-2-[(2-methylpropanoyloxy)methoxy]-N-(3,3,5,5-tetramethylcyclohexyl)-benzamide] | 100% | 100% | 65% | 70% | 70% | 80% | – | – | –
CC1(C)CC(NC(=O)c2cccc(NC=O)c2O)CC(C)(C)C1 [CR1, 3-formylamino-2-hydroxy-N-(3,3,5,5-tetramethylcyclohexyl)benzamide, reference compound] | 50% | 65% | 35% | 50% | 50% | 65% | 5% | 15% | –
CC(C)C(=O)OCOc1c(NC=O)cccc1C(=O)NC1CC(C)(C)CC(C)(C)C1 [Compound 1, 3-formylamino-2-[(2-methyl-propanoyl-oxy)methoxy]-N-(3,3,5,5-tetramethylcyclohexyl)benzamide] | 100% | 100% | 60% | 70% | 65% | 75% | 75% | 80% | 100%
